Measurements published in patent US9040516B2, “Uracil derivative and use thereof for medical purposes” (SUMITOMO DAINIPPON PHARMA CO., LTD., priority 2011, dated 2015).
Where a name gives a salt, the structure may show the parent alone.

Target: T1, human neutrophil elastase (Homo sapiens, UniProt P08246)
T1 construct: purchased Elastin Products Company
T1 sequence (P08246 30-267): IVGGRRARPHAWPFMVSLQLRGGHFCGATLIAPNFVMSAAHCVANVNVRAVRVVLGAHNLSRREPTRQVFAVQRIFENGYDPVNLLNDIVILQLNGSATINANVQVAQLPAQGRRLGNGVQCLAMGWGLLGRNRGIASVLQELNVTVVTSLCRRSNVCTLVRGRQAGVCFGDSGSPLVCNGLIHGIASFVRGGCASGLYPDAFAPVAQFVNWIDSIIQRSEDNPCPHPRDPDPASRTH
Experiment: Inhibitory action against human neutrophil elastase (Test Example 1; fluorogenic substrate MeOSuc-AAPV-AMC, buffer with 2M NaCl, 0.002% Brij-35)
Assay type: biochemical
Conditions: 37° C., read-out: IC50 value (compound concentration required for 50% inhibition of human neutrophil elastase)
Description: Assay buffer (0.4 unit/ml HNE (human neutrophil elastase, available from Elastin Products Company), 200 mM HEPES [N-(2-hydroxyethyl)piperazine-N′-(2-ethanesulfonic acid)], pH 7.5, 2M NaCl, 0.002% Brij-35) 100 μl, water for injection 40 μl and DMSO (dimethyl sulfoxide) solution of the present compound 20 μl were mixed in a 96 well plate and the mixed solutions were pre-incubated at 37° C. for five minutes. After pre-incubation, MeOSuc-AAPV-AMC (methoxysuccinyl-alanyl-alanyl-prolyl-valyl-aminomethyl cumaride (available from Sigma Aldrich Co.) solution as fluorogenic substrate (which was dissolved in 10% DMSO solution so as to adjust to 0.5 mM) 40 μl was added to the above-prepared mixed solution so as to initiate the reaction, and the mixture was incubated at 37° C. for five minutes. The fluorescence intensity of AMC was measured at an excitation wavelength of 380 nm and a fluorescence wavelength of 460 nm and the inhibition ratio was determined.

First: Cc1c(-c2ccnn2-c2ccc(C#N)cc2)c(=O)n(C)c(=O)n1-c1cccc(C(F)(F)F)c1 [Example 1, 4-[5-[3,6-dimethyl-2,4-dioxo-1-(3-trifluoromethylphenyl)-1,2,3,4-tetrahydropyrimidin-5-yl]-1H-pyrazol-1-yl]benzonitrile]
Second: CCCn1c(=O)c(-c2ccnn2-c2ccc(C#N)cc2)c(C)n(-c2cccc(C(F)(F)F)c2)c1=O [Example 2, 4-[5-[6-methyl-2,4-dioxo-3-propyl-1-(3-trifluoromethylphenyl)-1,2,3,4-tetrahydropyrimidin-5-yl]-1H-pyrazol-1-yl]benzonitrile]
The IC50 of the first is 1.8-fold lower: 19 nM for the first, 35 nM for the second.

Going from `Cc1c(-c2ccnn2-c2ccc(C#N)cc2)c(=O)n(C)c(=O)n1-c1cccc(Cl)c1` [Example 17, 4-[5-[1-(3-chlorophenyl)-3,6-dimethyl-2,4-dioxo-1,2,3,4-tetrahydropyrimidin-5-yl]-1H-pyrazol-1-yl]benzonitrile] to `Cc1cccc(-n2c(C)c(-c3ccnn3-c3ccc(C#N)cc3)c(=O)n(C)c2=O)c1` [Example 37, 4-(5-(3,6-dimethyl-2,4-dioxo-1-m-tolyl-1,2,3,4-tetrahydropyrimidin-5-yl)-1H-pyrazol-1-yl)benzonitrile], the IC50 rises from 95 nM to 191 nM (2-fold). The first is the more potent here.

Compared with `CC(=O)NCCn1c(=O)c(-c2ccnn2-c2ccc(C#N)cc2)c(C)n(-c2cccc(C(F)(F)F)c2)c1=O` [Example 71, N-[2-[5-[1-(4-Cyanophenyl)-1H-pyrazol-5-yl]-4-methyl-2,6-dioxo-3-(3-trifluoromethylphenyl)-2,3-dihydropyrimidin-1(6H)-yl]ethyl]acetamide], `CC(=O)NCCCCCn1c(=O)c(-c2ccnn2-c2ccc(C#N)cc2)c(C)n(-c2cccc(C(F)(F)F)c2)c1=O` [Example 86, N-[5-[5-[1-(4-Cyanophenyl)-1H-pyrazol-5-yl]-4-methyl-2,6-dioxo-3-(3-trifluoromethylphenyl)-2,3-dihydropyrimidin-1(6H)-yl]pentyl]acetamide] is 53-fold lower in IC50: 169 nM for the first, 3.2 nM for the second.

First: Cc1c(-c2ccnn2-c2ccc(C#N)cc2)c(=O)n(CC(=O)O)c(=O)n1-c1cccc(C(F)(F)F)c1 [Example 72, 2-[5-[1-(4-Cyanophenyl)-1H-pyrazole-5-yl]-4-methyl-2,6-dioxo-3-(3-trifluoromethylphenyl)-2,3-dihydropyrimidin-1(6H)-yl]acetic acid]
Second: Cc1c(-c2ccnn2-c2ccc(C#N)cc2)c(=O)n(CC(N)=O)c(=O)n1-c1cccc(C(F)(F)F)c1 [Example 76, 2-[5-[1-(4-cyanophenyl)-1H-pyrazol-5-yl]-4-methyl-2,6-dioxo-3-(3-trifluoromethylphenyl)-2,3-dihydropyrimidin-1(6H)-yl]-acetamide]
The IC50 of the first is 1.7-fold lower: 138 nM for the first, 232 nM for the second. The first is the more potent here.

Going from `Cc1c(-c2ccnn2-c2ccc(C#N)cc2)c(=O)n(CCC(=O)O)c(=O)n1-c1cccc(C(F)(F)F)c1` [Example 73, 3-[5-[1-(4-Cyanophenyl)-1H-pyrazol-5-yl]-4-methyl-2,6-dioxo-3-(3-trifluoromethylphenyl)-2,3-dihydropyrimidin-1(6H)-yl]propanoic acid] to `Cc1c(-c2ccnn2-c2ccc(C#N)cc2)c(=O)n(CCCC(=O)O)c(=O)n1-c1cccc(C(F)(F)F)c1` [Example 74, 4-[5-[1-(4-Cyanophenyl)-1H-pyrazol-5-yl]-4-methyl-2,6-dioxo-3-(3-trifluoromethylphenyl)-2,3-dihydropyrimidin-1(6H)-yl]butanoic acid], the IC50 falls from 535 nM to 312 nM (1.7-fold). The second is the more potent here.

`Cc1c(-c2ccnn2-c2ccc(C#N)cc2)c(=O)n(CCC(=O)N(C)C)c(=O)n1-c1cccc(C(F)(F)F)c1` [Example 75, 3-[5-[1-(4-Cyanophenyl)-1H-pyrazol-5-yl]-4-methyl-2,6-dioxo-3-(3-trifluoromethylphenyl)-2,3-dihydropyrimidin-1(6H)-yl]-N,N-dimethylpropaneamide] and `Cc1c(-c2ccnn2-c2ccc(C#N)cc2)c(=O)n(CCCC(=O)N(C)C)c(=O)n1-c1cccc(C(F)(F)F)c1` [Example 81, 4-[5-[1-(4-cyanophenyl)-1H-pyrazol-5-yl]-4-methyl-2,6-dioxo-3-(3-trifluoromethylphenyl)-2,3-dihydropyrimidin-1(6H)-yl]-N,N-dimethylbutaneamide] are within 1.5-fold of each other in IC50: 656 nM for the first, 616 nM for the second.

Compared with `CNC(=O)Cn1c(=O)c(-c2ccnn2-c2ccc(C#N)cc2)c(C)n(-c2cccc(C(F)(F)F)c2)c1=O` [Example 77, 2-[5-[1-(4-cyanophenyl)-1H-pyrazol-5-yl]-4-methyl-2,6-dioxo-3-(3-trifluoromethylphenyl)-2,3-dihydropyrimidin-1(6H)-yl]-N-methylacetamide], `CNC(=O)CCCn1c(=O)c(-c2ccnn2-c2ccc(C#N)cc2)c(C)n(-c2cccc(C(F)(F)F)c2)c1=O` [Example 80, 4-[5-[1-(4-cyanophenyl)-1H-pyrazol-5-yl]-4-methyl-2,6-dioxo-3-(3-trifluoromethylphenyl)-2,3-dihydropyrimidin-1(6H)-yl]-N-methylbutaneamide] is 7-fold higher in IC50: 184 nM for the first, 1290 nM for the second.

First: Cc1c(-c2ccnn2-c2ccc(C#N)cc2)c(=O)n(CC(=O)N[C@@H](C)c2ccccc2)c(=O)n1-c1cccc(C(F)(F)F)c1 [Example 82, (S)-2-(5-(1-(4-cyanophenyl)-1H-pyrazole-5-yl)-4-methyl-2,6-dioxo-3-(3-(trifluoromethyl)phenyl)-2,3-dihydropyrimidin-1(6H)-yl)-N-(1-phenylethyl)acetamide]
Second: Cc1c(-c2ccnn2-c2ccc(C#N)cc2)c(=O)n(CCCO)c(=O)n1-c1cccc(C(F)(F)F)c1 [Example 83, 4-[5-[3-(3-Hydroxypropyl)-6-methyl-2,4-dioxo-1-(3-trifluoromethylphenyl)-1,2,3,4-tetrahydropyrimidin-5-yl]-1H-pyrazol-1-yl]benzonitrile]
The IC50 of the first is 7.2-fold lower: 108 nM for the first, 776 nM for the second.

Going from `Cc1c(-c2ccnn2-c2ccc(C#N)cc2)c(=O)n(CCCCO)c(=O)n1-c1cccc(C(F)(F)F)c1` [Example 84, 4-[5-[3-(4-hydroxybutyl)-6-methyl-2,4-dioxo-1-(3-trifluoromethylphenyl)-1,2,3,4-tetrahydropyrimidin-5-yl]-1H-pyrazol-1-yl]benzonitrile] to `Cc1c(-c2ccnn2-c2ccc(C#N)cc2)c(=O)n(CCCCCN)c(=O)n1-c1cccc(C(F)(F)F)c1` [Example 85, 4-[5-[3-(5-Aminopentyl)-6-methyl-2,4-dioxo-1-(3-trifluoromethylphenyl)-1,2,3,4-tetrahydropyrimidin-5-yl]-1H-pyrazol-1-yl]benzonitrile hydrochloride], the IC50 falls from 147 nM to 4.3 nM (34-fold). The second is the more potent here.

First: Cc1c(-c2ccnn2-c2ccc(C#N)cc2S(C)(=O)=O)c(=O)n(C)c(=O)n1-c1cccc(C(F)(F)F)c1 [Example 102, 4-[5-[3,6-Dimethyl-2,4-dioxo-1-(3-trifluoromethylphenyl)-1,2,3,4-tetrahydropyrimidin-5-yl]-1H-pyrazol-1-yl]-3-(methylsulfonyl)benzonitrile]
Second: Cc1c(-c2ccnn2-c2ccc(C#N)cc2)c(=O)n(C)c(=O)n1-c1cccc(C(=O)O)c1 [Example 103, 3-[5-[1-(4-Cyanophenyl)-1H-pyrazol-5-yl]-3,6-dimethyl-2,4-dioxo-3,4-dihydropyrimidin-1(2H)yl]benzoic acid]
The IC50 of the first is 81-fold lower: 150 nM for the first, 12200 nM for the second. The first is the more potent here.

Going from `Cc1c(-c2ccnn2-c2ccc(C#N)cc2)c(=O)n(C)c(=O)n1-c1cccc(C(N)=O)c1` [Example 104, 3-[5-[1-(4-Cyanophenyl)1H-pyrazol-5-yl]-3,6-dimethyl-2,4-dioxo-3,4-dihydropyrimidin-1(2H)yl]benzamide] to `CNC(=O)c1cccc(-n2c(C)c(-c3ccnn3-c3ccc(C#N)cc3)c(=O)n(C)c2=O)c1` [Example 105, 3-[5-[1-(4-cyanophenyl)1H-pyrazol-5-yl]-3,6-dimethyl-2,4-dioxo-3,4-dihydropyrimidin-1(2H)yl]-N-methylbenzamide], the IC50 falls from 92500 nM to 22300 nM (4.1-fold).

Compared with `Cc1c(-c2ccnn2-c2ccc(C#N)cc2)c(=O)n(C)c(=O)n1-c1cccc(C(=O)N(C)C)c1` [Example 106, 3-[5-[1-(4-cyanophenyl)1H-pyrazol-5-yl]-3,6-dimethyl-2,4-dioxo-3,4-dihydropyrimidin-1(2H)yl]-N,N-dimethylbenzamide], `CCc1cccc(-n2c(C)c(-c3ccnn3-c3ccc(C#N)cc3)c(=O)n(C)c2=O)c1` [Example 108, 4-[5-[3,6-Dimethyl-2,4-dioxo-1-(3-ethylphenyl)-1,2,3,4-tetrahydropyrimidin-5-yl]-1H-pyrazol-1-yl]benzonitrile] is 42-fold lower in IC50: 13900 nM for the first, 332 nM for the second.

With `Cc1c(-c2ccnn2-c2ccc(C#N)cc2)c(=O)n(C)c(=O)n1-c1cccc(-c2ccccc2)c1` [Example 107, 4-(5-(1-(Biphenyl-3-yl)-3,6-dimethyl-2,4-dioxo-1,2,3,4-tetrahydropyrimidin-5-yl)-1H-pyrazol-1-yl)benzonitrile] the IC50 was 5400 nM.

Target: T1, human neutrophil elastase
Experiment: Inhibitory action 2 against human neutrophil elastase (Test Example 2; fluorogenic substrate MeOSuc-AAPV-AMC, buffer with 400 mM NaCl, 0.2 mg/ml BSA)
Assay type: biochemical
Conditions: 37° C., read-out: IC50 value (compound concentration required for 50% inhibition of human neutrophil elastase)
Outline: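 HNE (0.4 unit/ml in buffer) preincubated 5 min at 37° C with compound in 200 mM HEPES pH 7.5, 400 mM NaCl, 0.2 mg/ml BSA; reaction started with MeOSuc-AAPV-AMC (0.5 mM stock) and run 5 min at 37° C. AMC fluorescence (ex 380, em 460 nm) gave percent inhibition.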

`Cc1c(-c2ccnn2-c2ccc(C#N)cc2)c(=O)n(C)c(=O)n1-c1cccc(C(F)(F)F)c1` [Example 1, 4-[5-[3,6-dimethyl-2,4-dioxo-1-(3-trifluoromethylphenyl)-1,2,3,4-tetrahydropyrimidin-5-yl]-1H-pyrazol-1-yl]benzonitrile] and `CCCn1c(=O)c(-c2ccnn2-c2ccc(C#N)cc2)c(C)n(-c2cccc(C(F)(F)F)c2)c1=O` [Example 2, 4-[5-[6-methyl-2,4-dioxo-3-propyl-1-(3-trifluoromethylphenyl)-1,2,3,4-tetrahydropyrimidin-5-yl]-1H-pyrazol-1-yl]benzonitrile] are within 1.5-fold of each other in IC50: 16.9 nM for the first, 18.6 nM for the second.

First: Cc1c(-c2ccnn2-c2ccc(C#N)cc2)c(=O)n(C)c(=O)n1-c1cccc(Cl)c1 [Example 17, 4-[5-[1-(3-chlorophenyl)-3,6-dimethyl-2,4-dioxo-1,2,3,4-tetrahydropyrimidin-5-yl]-1H-pyrazol-1-yl]benzonitrile]
Second: Cc1cccc(-n2c(C)c(-c3ccnn3-c3ccc(C#N)cc3)c(=O)n(C)c2=O)c1 [Example 37, 4-(5-(3,6-dimethyl-2,4-dioxo-1-m-tolyl-1,2,3,4-tetrahydropyrimidin-5-yl)-1H-pyrazol-1-yl)benzonitrile]
The IC50 of the first is 2.7-fold lower: 23.4 nM for the first, 64.2 nM for the second.

For `Cc1c(-c2c(C(N)=O)cnn2-c2ccc(C#N)cc2)c(=O)n(C)c(=O)n1-c1cccc(C(F)(F)F)c1` [Example 148], the IC50 was 14.5 nM.

Test system: not given
Experiment: not given
Conditions: not given

For `Cc1c(-c2c(C(N)=O)cnn2-c2ccc(C#N)cc2)c(=O)n(C)c(=O)n1-c1cccc(C(F)(F)F)c1` [Example 148], the melting point was 263 °C.
